From US10093656B2, “Fused-ring or tricyclic aryl pyrimidine compound used as kinase inhibitor” (NANJING SANHOME PHARMACEUTICAL CO., LTD, priority 2015, dated 2018)

Key:
[1] = tested on: NCI-H1975 cells EGFR L858R/T790M; assay: NCI-H1975 cell viability assay (Cell Titer-Glo, 6 days); assay type: cell-based; conditions: Homo sapiens, 144 h
How it was run: (§1)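 A431 (EGFR WT) and NCI-H1975 (EGFR L858R/T790M) cells treated for 6 days at 37° C, in duplicate with 10 three-fold doses from 10 μM to 0.508 nM final. Viability read as CellTiter-Glo luminescence. IC50 from four-parameter fit of % inhibition.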

EGFR wild type = molecular target: T1, EGFR wild type (Homo sapiens, UniProt P00533); assay: Wild-type EGFR enzyme HTRF inhibition assay; assay type: biochemical; conditions: 25 μM ATP, read-out: EGFR WT IC50
T1 construct: purchased Life technology (Madison, Wis.)
How it was run: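 HTRF with 0.05 nM wild-type EGFR, 1 μM biotin-TK1 peptide, 25 μM ATP, 60 min at 23° C; detected with Eu-anti-TK1 antibody 2 nM and XL665 62.5 nM, 60 min at 23° C. Ten 3-fold doses, 300 nM to 0.015 nM final; IC50 by four-parameter fit of % inhibition.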

A431 cells EGFR WT = assay: A431 cell viability assay (Cell Titer-Glo, 6 days); assay type: cell-based, human; conditions: for IC50: Homo sapiens, A-431, 144 h, A431 cells, 6 days; for A431:NCI-H1975 (ratio): ratio of cell IC50 A431 to NCI-H1975
How it was run: as §1

EGFR d746-750/T790M = molecular target: T2, EGFR d746-750/T790M (Homo sapiens, UniProt P00533, DEL746-750/T790M); assay: EGFR d746-750/T790M enzyme HTRF inhibition assay; assay type: biochemical; conditions: 40 μM ATP
T2 construct: purchased Carna Biosciences (Japan)
How it was run: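 0.025 nM enzyme with 1 μM biotin-TK1 peptide and 40 μM ATP, 60 min at 23° C; compound tested at 10 doses, 300 nM to 0.015 nM final. HTRF read (Eu-anti-TK1 antibody 2 nM, XL665 62.5 nM, 60 min at 23° C); IC50 from four-parameter fit of % inhibition.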

EGFR T790M/L858R = molecular target: T3, EGFR T790M/L858R (Homo sapiens, UniProt P00533, L858R/T790M); assay: EGFR T790M/L858R enzyme HTRF inhibition assay; assay type: biochemical; conditions: 20 μM ATP, read-out: EGFR L858R/T79M IC50
T3 construct: purchased Life technology (Madison, Wis.)
How it was run: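 HTRF assay with 0.04 nM enzyme, 1 μM biotin-TK1 peptide and 20 μM ATP, 60 min at 23° C. Product detected with Eu-anti-TK1 antibody/XL665 (60 min at 23° C); compound at 10 doses, 300 nM to 0.015 nM final. IC50 from four-parameter fit.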

INSR = molecular target: T4, INSR (Homo sapiens, UniProt P06213); assay: INSR enzyme HTRF inhibition assay; assay type: biochemical; conditions: 35 μM ATP, read-out: INSR_IC50
T4 construct: purchased Life technology (Madison, Wis.)
Method: Enzyme: EGFR wild type, EGFR T790M/L858R, EGFR T790M and INSR were purchased from Life technology (Madison, Wis.), EGFR d746-750/T790M was purchased from Carna Biosciences (Japan).
HTRF Kit was purchased from Cis-Bio International which contained the Eu-labeled TK1 antibody, XL665 and biotin-labeled TK1 polypeptide substrates.
Detecting instrument: Envision (PerkinElmer).
The test compound was diluted 3-fold to obtain 10 doses of which the final concentration was from 300 nM to 0.015 nM.
INSR Enzyme Reaction Mixture System:
0.5 nM INSR, 1 μM biotin-TK1 peptide, 35 μM ATP enzyme buffer, a total of which was 10 μL. The reaction plate was white Proxiplate 384-Plus plate (PerkinElmer) and the mixture was reacted at 23° C. for 60 minutes.
Reaction Detection: 10 μL of detection reagent containing Antibody 2 nM and XL665 62.5 nM was added, and the reagent was incubated at 23° C. for 60 minutes. The plates were read by Envision.
The reading is converted to the suppression rate (%) by the following formula […]/(Max-Min)*100%. IC50 Data was measured by four-parameter curve fitting (Model 205 in XLFITS, IDBS).

[2] = tested on: NCI-H1975 lung cancer patient-derived xenograft (CDX); assay: Pharmacodynamics study in vivo, NCI-H1975 xenograft (CDX) model; design: species or system BALB/c nude mice; conditions: AZD9291 5 mg/kg; for Tumor Volume (mm^3) 4 days: day 4, oral daily: compound 30 10 mg/kg, 33, 34, 40, 42, 43 20 mg/kg; for Tumor Volume (mm^3) 7 days: day 7, oral daily: compound 30 10 mg/kg, 33, 34, 40, 42, 43 20 mg/kg; for Tumor Volume (mm^3) 11 days: day 11, oral daily: compound 30 10 mg/kg, 33, 34, 40, 42, 43 20 mg/kg; for Tumor Volume (mm^3) 14 days: day 14, oral daily: compound 30 10 mg/kg, 33, 34, 40, 42, 43 20 mg/kg; for Tumor Volume (mm^3) 18 days: day 18, oral daily: compound 30 10 mg/kg, 33, 34, 40, 42, 43 20 mg/kg
Method: (§2) For example, after 21 days of administration, the tumor volume of the representative compounds 30, 33, 34, 40, 42 and 43 decreased from the beginning of about 149 mm^3 to 3-39 mm^3.
(§3) The pharmacological experiments in vivo were performed on BALB/c nude mice that subcutaneously implanted NCI-H1975 lung cancer […] xenograft (CDX).
(§4) BALB/c nude mice, female, 6-8 weeks, weighted about 18-22 grams, the mice were kept in a special pathogen-free environment, and in a single ventilation cage (5 mice per cage). The bedding and water of all the cages were disinfected before use. All animals were free to obtain standard certified commercial laboratory diets. A total of 100 mice were purchased from Beijing Vital for research. The tumor tissue (20-30 mm^3) was implanted subcutaneously in the […] of each mouse for tumor growth. The experiment was started when the average tumor volume reached about 150-200 mm^3. The test compound was orally administered daily (compound 30 was administered at 10 mg/kg, compound 33, 34, 40, 42 and 43 were administered at 20 mg/kg and compound AZD9291 was administered continuously for 21 days at 5 mg/kg, the data were shown in Table 3). The tumor volume was measured twice a week with a two-dimensional caliper and the volume was measured in cubic millimeters and calculated by the following formula: V=V=0.5 a×b2, where a and b were the major and minor diameters of the tumor, respectively.

[3] = tested on: NCI-H1975 lung cancer xenograft (CDX); assay: as above; design: species or system BALB/c nude mice; conditions: day 0, oral daily: compound 30 10 mg/kg, 33, 34, 40, 42, 43 20 mg/kg, AZD9291 5 mg/kg
Method: as §2, §3, §4

[4] = tested on: human skin squamous cell A431 xenograft (CDX); assay: Selectivity study in vivo, A431 xenograft (CDX) model; design: species or system BALB/c nude mice; conditions: Table 5 experiment, AZD9291 5 mg/kg
Method: In this model, the less inhibitory effect on the tumor, the better the selectivity in vivo.
The selective experiments in vivo were performed on BALB/c nude mice that subcutaneously implanted human skin squamous cell A431 xenograft (CDX).
BALB/c nude mice, female, 6-8 weeks, weighted about 18-20 grams, the mice were kept in a special pathogen-free environment and in a single ventilation cage (5 mice per cage). The bedding and water of all the cages were disinfected before use. All animals were free to obtain standard certified commercial laboratory diets. All mice were purchased from mice of Shanghai BK Laboratory Animal Co., LTD for research. The tumor tissue (20-30 mm^3) was implanted subcutaneously in the […] of each mouse for tumor growth. The experiment was started when the average tumor volume reached about 150-200 mm^3. The test compound was orally administered (compounds 17, 30, 37 and 38 were administered once daily at 20 mg/kg, the compound AZD9291 was administered once daily at 5 mg/kg, the compound CO-1686 was administered twice daily at 50 mg/kg, the compound Erlotinib was administered once daily at 75 mg/kg and the compound Afatinib was administered once daily at 7.5 mg/kg, 21 days of continuous administration. The data were shown in Table 4; compounds 33, 34, 40, 42 and 43 were administered once daily at 20 mg/kg and compound AZD9291 was administered once daily at5 mg/kg, 21 days of continuous administration. The tumor volume was measured twice a week with a two-dimensional caliper and the volume was measured in cubic millimeters and calculated by the following formula: V=V=0.5 a×b2, where a and b were the major and minor diameters of the tumor, respectively.

T4 sequence (P06213 28-1382): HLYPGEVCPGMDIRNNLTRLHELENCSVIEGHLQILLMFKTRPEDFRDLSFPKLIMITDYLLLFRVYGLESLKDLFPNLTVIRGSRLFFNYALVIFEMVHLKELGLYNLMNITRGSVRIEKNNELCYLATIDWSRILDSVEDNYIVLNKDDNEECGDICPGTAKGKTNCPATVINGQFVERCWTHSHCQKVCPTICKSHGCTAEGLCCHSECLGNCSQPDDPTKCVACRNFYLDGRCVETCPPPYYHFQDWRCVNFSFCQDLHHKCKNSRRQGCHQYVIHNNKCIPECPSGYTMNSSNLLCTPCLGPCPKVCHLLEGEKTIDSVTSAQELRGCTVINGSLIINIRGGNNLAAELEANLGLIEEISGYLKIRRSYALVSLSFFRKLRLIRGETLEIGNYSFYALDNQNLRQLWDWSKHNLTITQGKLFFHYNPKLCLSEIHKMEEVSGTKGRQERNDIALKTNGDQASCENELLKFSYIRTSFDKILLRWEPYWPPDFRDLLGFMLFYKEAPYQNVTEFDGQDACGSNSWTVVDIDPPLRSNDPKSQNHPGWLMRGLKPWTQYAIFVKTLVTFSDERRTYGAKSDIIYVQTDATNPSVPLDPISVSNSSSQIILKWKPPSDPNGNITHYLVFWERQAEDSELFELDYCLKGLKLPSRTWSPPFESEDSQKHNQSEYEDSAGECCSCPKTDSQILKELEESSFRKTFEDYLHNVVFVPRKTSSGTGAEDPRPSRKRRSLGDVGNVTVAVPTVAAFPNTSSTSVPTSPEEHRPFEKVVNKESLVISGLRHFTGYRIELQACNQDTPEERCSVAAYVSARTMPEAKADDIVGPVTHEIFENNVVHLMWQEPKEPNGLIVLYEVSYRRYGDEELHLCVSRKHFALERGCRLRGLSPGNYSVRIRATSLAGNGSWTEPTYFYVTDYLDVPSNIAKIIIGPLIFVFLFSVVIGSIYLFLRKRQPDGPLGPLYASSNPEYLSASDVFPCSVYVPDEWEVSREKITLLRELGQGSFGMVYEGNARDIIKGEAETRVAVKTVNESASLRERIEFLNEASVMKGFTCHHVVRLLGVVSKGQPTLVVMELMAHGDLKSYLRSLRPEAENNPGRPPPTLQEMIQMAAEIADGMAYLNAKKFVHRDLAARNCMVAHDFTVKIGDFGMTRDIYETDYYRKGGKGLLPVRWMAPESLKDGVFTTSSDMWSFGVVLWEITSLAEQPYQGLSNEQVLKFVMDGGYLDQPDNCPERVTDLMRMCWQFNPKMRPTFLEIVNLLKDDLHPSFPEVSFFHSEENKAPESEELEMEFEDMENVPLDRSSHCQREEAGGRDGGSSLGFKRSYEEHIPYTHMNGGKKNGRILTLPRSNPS
T3 sequence (P00533 25-1210 T790M/L858R): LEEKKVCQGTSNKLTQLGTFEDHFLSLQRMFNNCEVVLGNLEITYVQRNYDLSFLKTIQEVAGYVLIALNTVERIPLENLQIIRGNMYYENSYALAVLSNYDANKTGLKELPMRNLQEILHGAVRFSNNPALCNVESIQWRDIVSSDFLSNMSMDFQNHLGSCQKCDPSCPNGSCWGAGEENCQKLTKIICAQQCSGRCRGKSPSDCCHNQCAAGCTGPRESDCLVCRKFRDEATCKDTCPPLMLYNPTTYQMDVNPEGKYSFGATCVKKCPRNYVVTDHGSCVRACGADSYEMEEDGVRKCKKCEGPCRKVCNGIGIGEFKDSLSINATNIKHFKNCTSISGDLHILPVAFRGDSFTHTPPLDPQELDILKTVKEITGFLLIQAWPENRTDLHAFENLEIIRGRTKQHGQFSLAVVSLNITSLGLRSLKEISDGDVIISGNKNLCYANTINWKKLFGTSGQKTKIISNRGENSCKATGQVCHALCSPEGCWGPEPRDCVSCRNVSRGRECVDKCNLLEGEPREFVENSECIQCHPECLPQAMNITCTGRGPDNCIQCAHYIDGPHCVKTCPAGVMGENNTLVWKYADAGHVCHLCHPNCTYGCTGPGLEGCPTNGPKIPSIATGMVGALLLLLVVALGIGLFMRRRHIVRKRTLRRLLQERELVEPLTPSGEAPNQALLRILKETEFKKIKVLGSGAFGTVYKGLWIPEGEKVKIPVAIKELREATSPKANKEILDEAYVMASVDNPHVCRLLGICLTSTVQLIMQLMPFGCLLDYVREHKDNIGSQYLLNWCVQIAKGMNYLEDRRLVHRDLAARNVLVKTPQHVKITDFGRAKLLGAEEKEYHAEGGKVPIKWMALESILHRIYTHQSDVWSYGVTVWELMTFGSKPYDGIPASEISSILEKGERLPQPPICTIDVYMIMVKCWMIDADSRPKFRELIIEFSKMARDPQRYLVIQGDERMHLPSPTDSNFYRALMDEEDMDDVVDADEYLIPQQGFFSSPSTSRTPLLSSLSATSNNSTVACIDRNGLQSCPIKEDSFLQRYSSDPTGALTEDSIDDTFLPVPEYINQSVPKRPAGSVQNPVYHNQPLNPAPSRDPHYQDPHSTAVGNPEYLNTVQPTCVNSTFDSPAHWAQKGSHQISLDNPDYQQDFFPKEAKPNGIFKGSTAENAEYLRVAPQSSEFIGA
T2 sequence (P00533 with tags, fused parts or gaps DEL746-750/T790M limits assumed): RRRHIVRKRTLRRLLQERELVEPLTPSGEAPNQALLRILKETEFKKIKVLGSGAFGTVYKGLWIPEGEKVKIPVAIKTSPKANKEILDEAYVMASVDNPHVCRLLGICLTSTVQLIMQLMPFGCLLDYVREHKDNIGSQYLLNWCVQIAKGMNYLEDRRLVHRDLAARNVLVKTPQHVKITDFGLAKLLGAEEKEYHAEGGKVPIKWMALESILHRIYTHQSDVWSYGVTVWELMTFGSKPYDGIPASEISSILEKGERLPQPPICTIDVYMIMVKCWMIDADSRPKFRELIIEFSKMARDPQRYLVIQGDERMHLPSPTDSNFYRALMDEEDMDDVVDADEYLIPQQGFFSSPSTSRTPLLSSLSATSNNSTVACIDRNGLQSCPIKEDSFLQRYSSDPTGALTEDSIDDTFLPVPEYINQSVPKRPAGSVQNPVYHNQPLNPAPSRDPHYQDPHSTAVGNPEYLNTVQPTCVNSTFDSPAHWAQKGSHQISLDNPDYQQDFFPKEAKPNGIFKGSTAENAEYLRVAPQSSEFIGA
T1 sequence (P00533 25-1210): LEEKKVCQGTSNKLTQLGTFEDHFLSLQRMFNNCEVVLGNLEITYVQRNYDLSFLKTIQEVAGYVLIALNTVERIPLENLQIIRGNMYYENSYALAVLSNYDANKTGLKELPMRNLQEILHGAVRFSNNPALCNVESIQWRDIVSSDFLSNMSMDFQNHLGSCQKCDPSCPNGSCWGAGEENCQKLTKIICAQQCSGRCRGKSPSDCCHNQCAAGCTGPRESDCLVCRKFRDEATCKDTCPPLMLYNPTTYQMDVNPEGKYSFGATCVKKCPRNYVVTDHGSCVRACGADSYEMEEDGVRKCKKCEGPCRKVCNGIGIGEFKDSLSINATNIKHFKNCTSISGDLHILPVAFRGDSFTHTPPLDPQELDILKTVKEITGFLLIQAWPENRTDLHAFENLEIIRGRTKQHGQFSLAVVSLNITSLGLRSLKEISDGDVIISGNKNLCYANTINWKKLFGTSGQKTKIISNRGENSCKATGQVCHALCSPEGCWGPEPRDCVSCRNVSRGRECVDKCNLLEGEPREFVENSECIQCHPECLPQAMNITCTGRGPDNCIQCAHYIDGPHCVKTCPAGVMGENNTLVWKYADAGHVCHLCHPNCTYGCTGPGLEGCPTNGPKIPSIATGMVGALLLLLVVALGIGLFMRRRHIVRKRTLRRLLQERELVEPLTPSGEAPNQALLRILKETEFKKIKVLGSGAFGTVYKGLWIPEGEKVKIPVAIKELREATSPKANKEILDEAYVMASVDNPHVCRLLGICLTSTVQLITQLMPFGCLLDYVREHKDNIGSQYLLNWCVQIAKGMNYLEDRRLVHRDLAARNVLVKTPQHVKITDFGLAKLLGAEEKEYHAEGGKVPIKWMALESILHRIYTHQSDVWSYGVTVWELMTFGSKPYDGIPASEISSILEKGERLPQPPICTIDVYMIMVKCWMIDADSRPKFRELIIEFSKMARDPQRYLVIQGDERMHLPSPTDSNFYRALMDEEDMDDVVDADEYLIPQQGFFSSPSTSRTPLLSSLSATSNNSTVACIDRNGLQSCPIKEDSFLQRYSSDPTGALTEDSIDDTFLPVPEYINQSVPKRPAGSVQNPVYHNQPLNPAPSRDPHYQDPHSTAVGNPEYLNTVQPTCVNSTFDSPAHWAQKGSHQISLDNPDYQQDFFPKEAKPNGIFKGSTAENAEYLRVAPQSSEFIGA

SMILES	IC50 [1]	IC50 (EGFR wild type)	IC50 (A431 cells EGFR WT)	A431:NCI-H1975 (ratio) (A431 cells EGFR WT)	IC50 (EGFR d746-750/T790M)	IC50 (EGFR T790M/L858R)	IC50 (INSR)	Tumor Volume (mm^3) 4 days [2]	Tumor Volume (mm^3) 7 days [2]	Tumor Volume (mm^3) 11 days [2]	Tumor Volume (mm^3) 14 days [2]	Tumor Volume (mm^3) 18 days [2]	Tumor Volume (mm^3) 21 days ([2]; day 21, oral daily: compound 30 10 mg/kg, 33, 34, 40, 42, 43 20 mg/kg)	Tumor Volume (mm^3) 0 day [3]	Tumor Volume (mm^3) 4 days ([4]; day 4, oral once daily: 33, 34, 40, 42, 43 20 mg/kg)	Tumor Volume (mm^3) 11 days ([4]; day 11, oral once daily: 33, 34, 40, 42, 43 20 mg/kg)	Tumor Volume (mm^3) 18 days ([4]; day 18, oral once daily: 33, 34, 40, 42, 43 20 mg/kg)
C=CC(=O)Nc1cc(Nc2nccc(-c3c4n(c5ccccc35)CCC4)n2)c(OC)cc1N(C)CCN(C)C [Embodiment 1]	10.4 nM	1.49 nM	714 nM	71.4	0.39 nM	0.32 nM	404 nM	–	–	–	–	–	–	–	–	–	–
C=CC(=O)Nc1cc(Nc2nccc(-c3cn(C)c4ccccc34)n2)c(OC)cc1N(C)CCN(C)C [AZD9291, reference compound]	–	–	–	–	–	–	–	86 mm^3	64 mm^3	52 mm^3	66 mm^3	25 mm^3	15 mm^3	149 mm^3	153 mm^3	219 mm^3	330 mm^3
C=CC(=O)Nc1cc(Nc2ncc(F)c(-c3c4n(c5ccccc35)CCOC4)n2)c(OC)cc1N(C)CCN(C)C [Embodiment 30, N-(5-((4-(3,4-Dihydro-1H-[1,4]oxazino[4,3-a]indol-10-yl)-5-fluoropyrimidin-2-yl)amino)-2-((2-(dimethylamino)ethyl)(methyl)amino)-4-methoxyphenyl)acrylamide]	15 nM	0.8 nM	823 nM	55	0.16 nM	0.14 nM	393 nM	115 mm^3	90 mm^3	48 mm^3	34 mm^3	22 mm^3	–	–	–	–	–
C=CC(=O)Nc1cc(Nc2nccc(-c3c4n(c5ccccc35)CCOC4)n2)c(OC)cc1N(C)CCN(C)CC [Embodiment 18, N-(5-((4-(3,4-Dihydro-1H-[1,4]oxazino[4,3-a]indol-10-yl)pyrimidin-2-yl)amino)-2-((2-(ethyl(methyl)amino)ethyl)(methyl)amino)-4-methoxyphenyl)acrylamide]	7 nM	1.9 nM	518 nM	74	0.18 nM	0.2 nM	633 nM	–	–	–	–	–	–	–	–	–	–
C=CC(=O)Nc1cc(Nc2nccc(-c3c4n(c5ccccc35)CCOC4)n2)c(OC)cc1N(C)CCNC [Embodiment 27, N-(5-((4-(3,4-Dihydro-1H-[1,4]oxazino[4,3-a]indol-10-yl)pyrimidin-2-yl)amino)-4-methoxy-2-(methyl(2-(methylamino)ethyl)amino)phenyl)acrylamide]	5 nM	1.7 nM	485 nM	97	0.19 nM	0.21 nM	570 nM	–	–	–	–	–	–	–	–	–	–
C=CC(=O)Nc1cc(Nc2nccc(-c3c4n(c5ccccc35)CCC4)n2)c(OC)cc1OCCN(C)C [Embodiment 3, N-(5-((4-(2,3-Dihydro-1H-pyrrolo[1,2-a]indol-9-yl)pyrimidin-2-yl)amino)-2-(2-(dimethylamino)ethoxy)-4-methoxyphenyl)acrylamide]	67.2 nM	1.58 nM	854 nM	12.7	0.19 nM	0.21 nM	886 nM	–	–	–	–	–	–	–	–	–	–
